What was measured:
TRKA = target: T1, TRKA (Homo sapiens, UniProt P04629); assay: In vitro biochemical HTRF KinEASE kinase inhibition, TRKA; conditions: wild-type kinase, final ATP 3.727 μmol/L; read-out: TRKA IC50
T1 construct: purchased Carna Biosciences 08-186

TRKB = target: T2, TRKB (Homo sapiens, UniProt Q16620); assay: In vitro biochemical HTRF KinEASE kinase inhibition, TRKB; conditions: wild-type kinase, final ATP 2.56 μmol/L
T2 construct: purchased Carna Biosciences 08-187
Method: The material and the method are as follows: wild-type kinases such as TRKA, TRKB and TRKC, and mutant kinases such as TRKA-G595R, TRKA-G667C, TRKA-F589L, TRKC-G623R and TRKC-G696A, and are derived from Carna Biosciences 08-186, 08-187, 08-197; HTRF KinEASE TKkit (Cisbio 62TKO PEC); 384 well plates (Greiner corporation); ATP (Life technologies PV 3227), MgCl2 (sigma); PHERAstar FS Multifunctional microplate reader (BMG Co.); low speed centrifuge (StaiteXiangyi corporation); incubator (Binder company).
Preparing a compound working solution: the dispensed compounds were removed from the freezer prior to testing and diluted to 100× concentration with pure DMSO; then the compound was diluted to the desired concentration of 4× with deionized water;
Preparation of 1.33× enzyme buffer (enzyme buffer): 5× enzyme buffer (from HTRF kit) was diluted to 1.33× with deionized water and the corresponding ingredients were added at a final concentration of 1.33×: 1.33 mmol/L Dithiothreitol (DTT), 1.33 mmol/L MnCl2, 6.65 mmol/L MgCl2 and 39.9 nmol/L SEB;
Preparation of a kinase working solution: TRKA, TRKB and TRKC were diluted with 1.33× enzyme buffer to the required concentrations of 2× of 0.404 ng/μL, 0.304 ng/μL and 0.236 ng/μL, respectively;
Preparing a substrate working solution: a mixture of TK Substrate Blr diluted to the desired final concentration of 4× (from HTRF kit) and ATP (10 mM) with 1.33× enzyme buffer; the final ATP concentrations for TRKA, TRKB, and TRKC were: 3.727 μmol/L, 2.56 μmol/L and 2.526 μmol/L. The TK Substrate-biotin (from HTRF KinEASE TKkit) final concentrations were all: 0.2 μmol/L.
Preparing a detection working solution: 16.67 μmol/L of Streptavidin-XL665 (Streptavidin-XL 665) were diluted to the desired final concentration of 4× with HTRF test buffer and then mixed with an equal volume of Antibody-europium Cryptate (Antibody-Cryptate) (both from HTRF kits).
An enzyme reaction step: add 4 μL of kinase working solution to each well of a low volume 384 microwell plate along with 4 μL of 1.33× enzyme buffer as a Negative control (Negative); add 2 μl of compound working solution to the wells, while adding 2 μl of […] aqueous solution as a zero compound concentration control (i.e., Positive control, Positive); incubating at 25° C. for 5 min; add 2 μL of substrate working solution to the wells to start the enzymatic reaction, shake the reaction for 30 min at 37° C.
HTRF reagent detection step: adding […] to the hole to terminate the reaction; reacting for 1 h at 25° C.;
Reading of HTRF signal: the PHERAstar FS reading is adopted to detect signals, and the corresponding setting of the instrument is as follows:
For the raw data read out per well, the ratio=665 nm/620 nm;
Calculation of inhibition rate:
Calculation of IC50 values: with the logarithm of the compound concentration as abscissa and the inhibition as ordinate, a non-linear curve was fitted in GraphPad Prism 5: log (inhibitor) vs. response—Variable slope, and calculating the concentration of the compound to be detected, namely IC50, when the enzyme activity inhibition rate is 50%.

TRKC = target: T3, TRKC (Homo sapiens, UniProt Q16288); assay: In vitro biochemical HTRF KinEASE kinase inhibition, TRKC; conditions: wild-type kinase, final ATP 2.526 μmol/L
T3 construct: purchased Carna Biosciences 08-197

TRKA-G595R = target: T4, TRKA-G595R (Homo sapiens, UniProt P04629, G595R); assay: TRK kinase mutant inhibition (HTRF), TRKA-G595R; format: biochemical
T4 construct: purchased Carna Biosciences

TRKA-G667C = target: T5, TRKA-G667C (Homo sapiens, UniProt P04629, G667C); assay: TRK kinase mutant inhibition (HTRF), TRKA-G667C; format: biochemical
T5 construct: purchased Carna Biosciences

TRKA-F589L = target: T6, TRKA-F589L (Homo sapiens, UniProt P04629, F589L); assay: TRK kinase mutant inhibition (HTRF), TRKA-F589L; format: biochemical
T6 construct: purchased Carna Biosciences

TRKC-G623R = target: T7, TRKC-G623R (Homo sapiens, UniProt Q16288, G623R); assay: TRK kinase mutant inhibition (HTRF), TRKC-G623R; format: biochemical
T7 construct: purchased Carna Biosciences

TRKC-G696A = target: T8, TRKC-G696A (Homo sapiens, UniProt Q16288, G696A); assay: TRK kinase mutant inhibition (HTRF), TRKC-G696A; format: biochemical
T8 construct: purchased Carna Biosciences
T8 sequence (Q16288 32-839 G696A): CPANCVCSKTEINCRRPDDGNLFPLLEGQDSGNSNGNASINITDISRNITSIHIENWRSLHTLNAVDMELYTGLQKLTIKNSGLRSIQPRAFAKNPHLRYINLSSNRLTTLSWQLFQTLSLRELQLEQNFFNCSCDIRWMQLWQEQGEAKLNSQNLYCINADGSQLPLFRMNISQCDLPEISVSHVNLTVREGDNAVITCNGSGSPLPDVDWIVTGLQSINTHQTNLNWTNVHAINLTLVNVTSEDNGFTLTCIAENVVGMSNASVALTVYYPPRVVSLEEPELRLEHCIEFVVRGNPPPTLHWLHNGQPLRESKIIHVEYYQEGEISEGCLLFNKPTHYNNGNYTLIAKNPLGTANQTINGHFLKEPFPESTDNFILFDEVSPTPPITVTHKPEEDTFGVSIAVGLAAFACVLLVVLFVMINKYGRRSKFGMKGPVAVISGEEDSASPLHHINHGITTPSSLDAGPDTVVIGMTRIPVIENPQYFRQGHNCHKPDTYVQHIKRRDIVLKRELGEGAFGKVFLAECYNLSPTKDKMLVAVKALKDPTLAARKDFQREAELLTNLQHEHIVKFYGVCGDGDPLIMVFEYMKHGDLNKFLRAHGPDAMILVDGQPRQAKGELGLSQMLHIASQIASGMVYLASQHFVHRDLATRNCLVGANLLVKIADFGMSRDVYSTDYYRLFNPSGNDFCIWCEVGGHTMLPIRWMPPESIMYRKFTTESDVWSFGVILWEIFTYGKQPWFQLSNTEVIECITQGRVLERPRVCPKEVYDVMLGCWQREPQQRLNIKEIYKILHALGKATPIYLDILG

T3 sequence (Q16288 32-825 isoform Q16288-3 limits assumed): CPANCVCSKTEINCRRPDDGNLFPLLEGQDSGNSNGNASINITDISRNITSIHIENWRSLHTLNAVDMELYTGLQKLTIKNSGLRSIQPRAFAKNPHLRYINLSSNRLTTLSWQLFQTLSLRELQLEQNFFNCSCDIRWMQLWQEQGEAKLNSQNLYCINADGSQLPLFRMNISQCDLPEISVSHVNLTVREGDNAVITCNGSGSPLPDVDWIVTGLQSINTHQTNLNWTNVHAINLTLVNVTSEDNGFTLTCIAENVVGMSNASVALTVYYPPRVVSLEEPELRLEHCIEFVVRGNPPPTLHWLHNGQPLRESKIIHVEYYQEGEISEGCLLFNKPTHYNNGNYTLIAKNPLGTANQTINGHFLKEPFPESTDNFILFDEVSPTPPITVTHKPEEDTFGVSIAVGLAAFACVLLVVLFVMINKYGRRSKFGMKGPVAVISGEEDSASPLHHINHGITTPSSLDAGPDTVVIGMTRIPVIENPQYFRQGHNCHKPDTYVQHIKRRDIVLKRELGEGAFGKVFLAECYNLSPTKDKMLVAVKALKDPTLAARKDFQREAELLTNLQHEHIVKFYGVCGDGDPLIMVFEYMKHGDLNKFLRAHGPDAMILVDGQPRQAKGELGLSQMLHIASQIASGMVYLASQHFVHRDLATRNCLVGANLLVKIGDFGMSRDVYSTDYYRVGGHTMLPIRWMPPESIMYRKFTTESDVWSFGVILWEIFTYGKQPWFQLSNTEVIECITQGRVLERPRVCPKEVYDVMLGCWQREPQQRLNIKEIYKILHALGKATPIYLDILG
T7 sequence (Q16288 32-839 G623R): as the sequence (Q16288 32-839 G696A) above, with G592R, A665G counted along it
T5 sequence (P04629 33-796 G667C): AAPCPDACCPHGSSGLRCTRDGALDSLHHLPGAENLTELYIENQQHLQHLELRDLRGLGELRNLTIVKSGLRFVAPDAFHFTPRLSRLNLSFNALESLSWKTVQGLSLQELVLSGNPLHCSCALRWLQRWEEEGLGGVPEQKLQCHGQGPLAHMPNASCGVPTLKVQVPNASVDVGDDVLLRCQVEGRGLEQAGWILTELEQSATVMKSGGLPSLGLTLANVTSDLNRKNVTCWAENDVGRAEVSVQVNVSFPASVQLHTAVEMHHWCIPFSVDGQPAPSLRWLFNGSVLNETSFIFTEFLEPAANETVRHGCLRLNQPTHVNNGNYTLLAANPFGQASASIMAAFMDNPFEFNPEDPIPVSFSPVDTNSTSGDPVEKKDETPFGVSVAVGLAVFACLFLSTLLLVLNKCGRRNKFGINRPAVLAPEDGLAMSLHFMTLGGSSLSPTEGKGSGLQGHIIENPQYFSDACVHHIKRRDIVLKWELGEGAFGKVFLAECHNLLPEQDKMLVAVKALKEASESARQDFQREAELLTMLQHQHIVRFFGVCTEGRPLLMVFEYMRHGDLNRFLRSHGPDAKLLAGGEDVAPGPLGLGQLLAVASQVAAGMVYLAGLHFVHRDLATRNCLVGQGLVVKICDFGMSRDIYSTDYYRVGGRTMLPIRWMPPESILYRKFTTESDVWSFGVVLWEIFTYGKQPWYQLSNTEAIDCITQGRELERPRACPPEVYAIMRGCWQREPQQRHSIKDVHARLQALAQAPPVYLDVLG
T2 sequence (Q16620 32-822): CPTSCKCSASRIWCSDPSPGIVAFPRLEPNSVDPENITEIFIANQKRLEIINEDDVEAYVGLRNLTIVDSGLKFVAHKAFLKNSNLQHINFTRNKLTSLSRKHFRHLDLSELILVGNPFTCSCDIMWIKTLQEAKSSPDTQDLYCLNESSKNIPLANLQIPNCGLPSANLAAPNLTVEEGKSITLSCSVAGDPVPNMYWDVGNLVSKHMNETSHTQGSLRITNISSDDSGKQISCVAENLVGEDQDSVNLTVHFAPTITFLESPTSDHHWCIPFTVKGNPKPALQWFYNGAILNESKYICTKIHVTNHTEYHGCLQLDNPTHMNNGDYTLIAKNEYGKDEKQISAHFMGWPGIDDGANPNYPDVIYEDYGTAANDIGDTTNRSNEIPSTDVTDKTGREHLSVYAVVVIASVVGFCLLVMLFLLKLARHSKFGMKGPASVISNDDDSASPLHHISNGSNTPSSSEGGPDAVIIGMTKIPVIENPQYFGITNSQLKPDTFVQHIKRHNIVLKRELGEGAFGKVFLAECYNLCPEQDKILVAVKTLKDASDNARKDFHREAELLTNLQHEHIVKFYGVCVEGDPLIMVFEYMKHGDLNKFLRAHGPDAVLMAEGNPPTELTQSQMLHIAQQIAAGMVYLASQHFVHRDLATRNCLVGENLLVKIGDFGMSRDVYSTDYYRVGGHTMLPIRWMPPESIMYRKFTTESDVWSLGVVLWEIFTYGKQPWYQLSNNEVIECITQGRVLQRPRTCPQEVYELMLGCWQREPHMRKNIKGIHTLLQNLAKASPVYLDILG
T1 sequence (P04629 33-796): as the sequence (P04629 33-796 G667C) above, with C635G counted along it
T4 sequence (P04629 33-796 G595R): as the sequence (P04629 33-796 G667C) above, with G563R, C635G counted along it
T6 sequence (P04629 33-796 F589L): as the sequence (P04629 33-796 G667C) above, with F557L, C635G counted along it

SMILES	IC50 (TRKA) [nM]	IC50 (TRKB) [nM]	IC50 (TRKC) [nM]	IC50 (TRKA-G595R) [nM]	IC50 (TRKA-G667C) [nM]	IC50 (TRKA-F589L) [nM]	IC50 (TRKC-G623R) [nM]	IC50 (TRKC-G696A) [nM]
CC(Nc1ccn2ncc(-c3cnn(C4CCCC4O)c3)c2n1)c1cc(F)ccc1OCC(F)F (stereo not shown) [Compound 8, 2-(4-(5-((1-(2-(2,2-difluoroethoxy)-5-fluorophenyl)ethyl)amino)pyrazolo [1,5-a]pyrimidin-3-yl)-1H-pyrazol-1-yl) cyclopentan-1-ol]	5.4	5.7	9.8	–	–	–	–	–
C[C@@H](Nc1ccn2ncc(-c3cnn(C4CCCCO4)c3)c2n1)c1cc(F)ccc1OCC(F)F (stereo partly drawn) [Compound 10, N-((R)-1-(2-(2,2-difluoroethoxy)-5-fluorophenyl)ethyl)-3-(1-(tetrahydro-2H-pyran-2-yl)-1H-pyrazol-4-yl) pyrazolo [1,5-a] pyrimidin-5-amine]	3.8	2.7	5.5	–	–	–	–	–
CC(Nc1ccn2ncc(-c3cn[nH]c3)c2n1)c1cc(F)cc(F)c1OCC(F)F (stereo not shown) [Compound 14, N-(1-(2-(2,2-difluoroethoxy)-3,5-difluorophenyl)ethyl)-3-(1H-pyrazol-4-yl) pyrazolo [1,5-a] pyrimidin-5-amine]	11.3	4.2	6.7	–	–	–	–	–
CC(Nc1ccn2ncc(-c3cn[nH]c3)c2n1)c1ccccc1OCC(F)F (stereo not shown) [Compound 16, N-(1-(2-(2,2-difluoroethoxy)phenyl)ethyl)-3-(1H-pyrazol-4-yl) pyrazolo [1,5-a] pyrimidin-5-amine]	8.5	8.6	12.2	–	–	–	–	–
CC(Nc1ccn2ncc(-c3cnn(C4CCCC4O)c3)c2n1)c1cc(F)ccc1O (stereo not shown) [Compound a2-3, 4-fluoro-2-(1-((3-(1-(2-hydroxycyclopentyl)-1H-pyrazol-4-yl)pyrazolo [1,5-a]pyrimidin-5-yl)amino)ethyl) phenol]	10.5	5.1	8.5	–	–	–	–	–
C[C@@H](Nc1ccn2ncc(-c3cnn(C)c3)c2n1)c1cc(F)ccc1OCCF [Compound a10-17, (R)-N-(1-(5-fluoro-2-(2-fluoroethoxy)phenyl)ethyl)-3-(1-methyl-1H-pyrazol-4-yl) pyrazolo [1,5-a] pyrimidin-5-amine]	2.3	1.5	15.1	–	–	–	–	–
CC(Nc1ccn2ncc(-c3cnn(C(F)F)c3)c2n1)c1cc(F)ccc1OCCF (stereo not shown) [Compound a11-18, 3-(1-(difluoromethyl)-1H-pyrazol-4-yl)-N-(1-(5-fluoro-2-(2-fluoroethoxy)phenyl)ethyl) pyrazolo [1,5-a] pyrimidin-5-amine]	10.9	–	–	1.1	1	0.32	0.93	0.77
C[C@@H](Nc1ccn2ncc(-c3cnn(C)c3)c2n1)c1cc(F)ccc1OCC(F)(F)F [Compound a23-31, (R)-N-(1-(5-fluoro-2-(2,2,2-trifluoroethoxy)phenyl)ethyl)-3-(1-methyl-1H-pyrazol-4-yl) pyrazolo [1,5-a] pyrimidin-5-amine]	4	3	6.1	1.5	1.37	0.38	1.7	0.88
CC(Nc1ccn2ncc(-c3cnn(C)c3)c2n1)c1cc(F)ccc1OC1CCOC1 (stereo not shown) [Compound a27-41, N-(1-(5-fluoro-2-((tetrahydrofuran-3-yl)oxy)phenyl)ethyl)-3-(1-methyl-1H-pyrazol-4-yl) pyrazolo [1,5-a] pyrimidin-5-amine]	7.7	5.8	7.1	–	–	–	–	–
CC(Nc1ccn2ncc(-c3cn[nH]c3)c2n1)c1cc(F)ccc1OCF (stereo not shown) [Compound b3-6, N-(1-(5-fluoro-2-(fluoromethoxy)phenyl)ethyl)-3-(1H-pyrazol-4-yl) pyrazolo [1,5-a] pyrimidin-5-amine]	18.1	13	15.5	–	–	–	–	–
CCOc1ccc(F)cc1C(C)Nc1ccn2ncc(-c3cn[nH]c3)c2n1 (stereo not shown) [Compound b5-11, N-(1-(2-ethoxy-5-fluorophenyl)ethyl)-3-(1H-pyrazol-4-yl) pyrazolo [1,5-a]pyrimidin-5-amine]	8.4	4.3	8.4	–	–	–	–	–
CC(Nc1ccn2ncc(-c3cn[nH]c3)c2n1)c1cc(F)ccc1OCCCF (stereo not shown) [Compound b10-34, N-(1-(5-fluoro-2-(3-fluoropropoxy)phenyl)ethyl)-3-(1H-pyrazol-4-yl) pyrazolo [1,5-a] pyrimidin-5-amine]	9.7	9.8	14.1	–	–	–	–	–
CC(Nc1ccn2ncc(-c3cn[nH]c3)c2n1)c1cc(F)ccc1OC1CCCC1 (stereo not shown) [Compound b13-39, N-(1-(2-(cyclopentyloxy)-5-fluorophenyl)ethyl)-3-(1H-pyrazol-4-yl) pyrazolo [1,5-a] pyrimidin-5-amine]	7.9	5.9	8	–	–	–	–	–

Second part, the compound after the results:

IC50 (TRKA) [nM]	IC50 (TRKB) [nM]	IC50 (TRKC) [nM]	IC50 (TRKA-G595R) [nM]	IC50 (TRKA-G667C) [nM]	IC50 (TRKA-F589L) [nM]	IC50 (TRKC-G623R) [nM]	IC50 (TRKC-G696A) [nM]	SMILES
2.4	1.3	2.4	–	–	–	–	–	C[C@@H](Nc1ccn2ncc(-c3cnn(CC#N)c3)c2n1)c1cc(F)ccc1OCC(F)F [Compound 7]
3.3	3.5	4.7	–	–	–	–	–	CC(=O)n1cc(-c2cnn3ccc(N[C@H](C)c4cc(F)ccc4OCC(F)F)nc23)cn1 [Compound 12, (R)-1-(4-(5-((1-(2-(2,2-difluoroethoxy)-5-fluorophenyl)ethyl)amino)pyrazolo [1,5-a]pyrimidin-3-yl)-1H-pyrazol-1-yl) ethanone]
2.4	1.5	3.5	1.2	3.2	0.4	2.9	1.1	C[C@@H](Nc1ccn2ncc(-c3cnn(C)c3)c2n1)c1cc(F)ccc1OC(F)F [Compound a4-8]
11.5	6.7	9.9	–	–	–	–	–	CC(Nc1ccn2ncc(-c3cnn(C)c3)c2n1)c1cc(F)ccc1OCC1CC1 (stereo not shown) [Compound a26-38, N-(1-(2-(cyclopropylmethoxy)-5-fluorophenyl)ethyl)-3-(1-methyl-1H-pyrazol-4-yl) pyrazolo [1,5-a] pyrimidin-5-amine]
3.37	3.1	3.8	–	–	–	–	–	CC(Nc1ccn2ncc(-c3cn[nH]c3)c2n1)c1cc(F)ccc1OC(F)F (stereo not shown) [Compound b4-7, N-(1-(2-(difluoromethoxy)-5-fluorophenyl)ethyl)-3-(1H-pyrazol-4-yl) pyrazolo [1,5-a] pyrimidin-5-amine]
6	5.5	12.2	–	–	–	–	–	CCCOc1ccc(F)cc1C(C)Nc1ccn2ncc(-c3cn[nH]c3)c2n1 (stereo not shown) [Compound b9-33, N-(1-(5-fluoro-2-propoxyphenyl)ethyl)-3-(1H-pyrazol-4-yl) pyrazolo [1,5-a] pyrimidin-5-amine]
4.51	8.6	11.7	–	–	–	–	–	CC(Nc1ccn2ncc(-c3cn[nH]c3)c2n1)c1cc(F)ccc1OC1CCOC1 (stereo not shown) [Compound b14-40, N-(1-(5-fluoro-2-((tetrahydrofuran-3-yl)oxy)phenyl)ethyl)-3-(1H-pyrazol-4-yl) pyrazolo [1,5-a] pyrimidin-5-amine]
